Measurements reported in BindingDB's records for PubMed 9226416 (University of Sydney, 1997).

Tests used:
[1] = target: T1, Gamma-aminobutyric acid receptor subunit alpha-3 (Homo sapiens, UniProt P34903)
T1 sequence (P34903 whole entry): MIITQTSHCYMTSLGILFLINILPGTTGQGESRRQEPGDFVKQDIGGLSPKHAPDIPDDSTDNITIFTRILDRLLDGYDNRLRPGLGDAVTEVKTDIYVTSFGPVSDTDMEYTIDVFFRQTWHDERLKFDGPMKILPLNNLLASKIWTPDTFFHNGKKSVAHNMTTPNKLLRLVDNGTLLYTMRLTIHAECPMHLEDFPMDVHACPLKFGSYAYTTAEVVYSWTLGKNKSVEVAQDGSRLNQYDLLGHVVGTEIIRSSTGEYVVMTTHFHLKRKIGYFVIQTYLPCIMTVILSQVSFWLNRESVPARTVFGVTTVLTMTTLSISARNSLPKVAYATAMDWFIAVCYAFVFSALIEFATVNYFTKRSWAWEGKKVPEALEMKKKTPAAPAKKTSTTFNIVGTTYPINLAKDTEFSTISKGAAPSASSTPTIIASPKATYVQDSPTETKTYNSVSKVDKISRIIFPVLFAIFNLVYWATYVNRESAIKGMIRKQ

[2] = target: Gamma-aminobutyric acid (GABA) B receptor 1 (Rattus norvegicus, UniProt Q6MFX8)
Gamma-aminobutyric acid (GABA) B receptor 1, sequence (Q6MFX8 whole entry): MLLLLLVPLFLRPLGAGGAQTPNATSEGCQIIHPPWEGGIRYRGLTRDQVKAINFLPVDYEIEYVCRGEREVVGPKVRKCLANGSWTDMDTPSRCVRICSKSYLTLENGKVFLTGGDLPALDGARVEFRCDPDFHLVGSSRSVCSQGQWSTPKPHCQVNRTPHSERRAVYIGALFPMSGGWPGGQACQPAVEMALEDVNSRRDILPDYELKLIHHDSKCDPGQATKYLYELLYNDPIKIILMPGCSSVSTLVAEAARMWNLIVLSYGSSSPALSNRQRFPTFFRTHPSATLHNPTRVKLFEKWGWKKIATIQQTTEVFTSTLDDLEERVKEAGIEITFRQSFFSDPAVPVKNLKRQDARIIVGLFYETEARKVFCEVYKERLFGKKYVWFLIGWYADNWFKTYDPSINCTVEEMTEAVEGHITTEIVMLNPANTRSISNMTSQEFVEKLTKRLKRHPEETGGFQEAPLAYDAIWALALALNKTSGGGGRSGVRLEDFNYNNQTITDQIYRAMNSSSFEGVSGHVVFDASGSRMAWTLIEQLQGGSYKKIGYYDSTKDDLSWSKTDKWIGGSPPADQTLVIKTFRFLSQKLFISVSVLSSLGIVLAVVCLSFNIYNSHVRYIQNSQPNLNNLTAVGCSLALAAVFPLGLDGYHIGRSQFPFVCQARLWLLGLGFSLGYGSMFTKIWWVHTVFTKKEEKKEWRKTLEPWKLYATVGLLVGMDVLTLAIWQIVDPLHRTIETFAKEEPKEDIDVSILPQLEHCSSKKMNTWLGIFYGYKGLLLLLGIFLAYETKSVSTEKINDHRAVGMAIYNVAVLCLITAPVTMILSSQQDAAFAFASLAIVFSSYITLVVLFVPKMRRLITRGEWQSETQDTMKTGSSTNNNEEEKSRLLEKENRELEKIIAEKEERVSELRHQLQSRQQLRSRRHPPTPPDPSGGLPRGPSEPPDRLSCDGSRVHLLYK

| SMILES | Ki [1] | Ki [2] |
| --- | --- | --- |
| CCCCP(=O)(O)CCCN [CGP36742] | > 10000 nM | – |
| NCCC[PH](=O)O [(3-aminopropyl)phosphinic acid] | 2470 nM | 5 nM |
| CP(=O)(O)CCCN [CGP35024] | 750 nM | – |
